Laboratory results reported in patent US10004732B2 (Novartis AG, priority 2014, dated 2018).

What was measured:
PI 4-kinase beta = PI 4-kinase beta (Homo sapiens, UniProt Q9UBF8); assay: Kinase Glo Luminescent Kinase Assay (Kglo), assay D; assay type: biochemical; conditions: read-out: Assay D PI4Kβ IC50
Protocol: Kinase Glo Luminescent Kinase Assay (Kglo) for Pb 3-Kinase Alpha (A), Pb 3-Kinase Beta (B), Vps34 (C), Pb 4-Kinase Beta (D)
The Kinase Glo Luminescent Kinase Assay (Promega, Madison/Wis., USA) is a homogeneous HTS method of measuring kinase activity by quantifying the amount of ATP remaining in solution following a kinase reaction.
L-α-phosphatidylinositol (PI), provided as 10 mg/ml solution in methanol, was transferred into a glass tube and dried under a nitrogen beam. It was then resuspended in 3% OctylGlucoside (1-0-n-octyl-beta-D-glucopyranoside) by vortexing and stored at 4° C. 5 μL of a mix of PI/OctylGlucoside with the PI 3-kinase alpha and PI 3-kinase beta subtypes, or Vps34 or PI 4-kinase beta were added. Kinase reactions were started by the addition of 5 μl of an ATP-mix containing in a final volume 10 μL 10 mM TRIS-HCl pH 7.5, 3 mM MgCl2, 50 mM NaCl, 0.05% CHAPS, 1 mM DTT and 1 μM ATP at room temperature.
All fits were performed with the program XLfit4 (ID Business Solutions, Guildford, UK).

PI 3-kinase beta [1] = molecular target: T1, PI 3-kinase beta (Homo sapiens, UniProt P42338); assay: Cellular assay I1, p-Akt (S473) in Rat-1 cells, Surefire format; assay type: cell-based; conditions: non-asterisked data: version I1 (Surefire format), Rat-1 cells; read-out: Assay I PI3Kβ IC50
Target sequence in this assay (P42338 whole entry): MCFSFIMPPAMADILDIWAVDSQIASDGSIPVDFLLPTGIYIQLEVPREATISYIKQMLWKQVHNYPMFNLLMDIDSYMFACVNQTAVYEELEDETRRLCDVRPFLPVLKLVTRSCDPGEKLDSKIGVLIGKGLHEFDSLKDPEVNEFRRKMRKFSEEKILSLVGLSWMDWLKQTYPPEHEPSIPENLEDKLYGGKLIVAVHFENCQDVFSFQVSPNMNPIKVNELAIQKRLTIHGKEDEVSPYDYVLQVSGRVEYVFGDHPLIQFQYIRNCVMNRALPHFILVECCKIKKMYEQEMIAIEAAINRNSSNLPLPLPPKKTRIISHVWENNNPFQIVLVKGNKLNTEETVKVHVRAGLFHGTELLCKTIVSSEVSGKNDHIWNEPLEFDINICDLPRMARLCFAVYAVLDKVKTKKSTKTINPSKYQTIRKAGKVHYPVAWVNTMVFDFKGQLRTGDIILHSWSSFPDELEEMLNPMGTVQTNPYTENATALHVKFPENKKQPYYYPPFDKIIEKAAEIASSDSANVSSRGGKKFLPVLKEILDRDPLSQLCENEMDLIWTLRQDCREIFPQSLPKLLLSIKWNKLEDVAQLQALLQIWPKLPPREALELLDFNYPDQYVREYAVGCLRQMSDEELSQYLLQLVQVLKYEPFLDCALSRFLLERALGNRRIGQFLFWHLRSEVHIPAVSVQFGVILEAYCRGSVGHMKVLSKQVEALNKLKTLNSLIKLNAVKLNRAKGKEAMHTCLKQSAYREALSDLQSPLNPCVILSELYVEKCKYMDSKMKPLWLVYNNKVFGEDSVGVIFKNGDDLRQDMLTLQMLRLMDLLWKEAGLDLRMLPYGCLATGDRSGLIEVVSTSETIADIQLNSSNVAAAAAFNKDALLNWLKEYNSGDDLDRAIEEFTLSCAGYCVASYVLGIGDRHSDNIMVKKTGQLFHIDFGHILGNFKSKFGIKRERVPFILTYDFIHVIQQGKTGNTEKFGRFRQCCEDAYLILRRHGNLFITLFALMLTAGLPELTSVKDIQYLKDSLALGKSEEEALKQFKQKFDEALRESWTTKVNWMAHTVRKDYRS
Target sequence in this assay (Q63787 whole entry partner): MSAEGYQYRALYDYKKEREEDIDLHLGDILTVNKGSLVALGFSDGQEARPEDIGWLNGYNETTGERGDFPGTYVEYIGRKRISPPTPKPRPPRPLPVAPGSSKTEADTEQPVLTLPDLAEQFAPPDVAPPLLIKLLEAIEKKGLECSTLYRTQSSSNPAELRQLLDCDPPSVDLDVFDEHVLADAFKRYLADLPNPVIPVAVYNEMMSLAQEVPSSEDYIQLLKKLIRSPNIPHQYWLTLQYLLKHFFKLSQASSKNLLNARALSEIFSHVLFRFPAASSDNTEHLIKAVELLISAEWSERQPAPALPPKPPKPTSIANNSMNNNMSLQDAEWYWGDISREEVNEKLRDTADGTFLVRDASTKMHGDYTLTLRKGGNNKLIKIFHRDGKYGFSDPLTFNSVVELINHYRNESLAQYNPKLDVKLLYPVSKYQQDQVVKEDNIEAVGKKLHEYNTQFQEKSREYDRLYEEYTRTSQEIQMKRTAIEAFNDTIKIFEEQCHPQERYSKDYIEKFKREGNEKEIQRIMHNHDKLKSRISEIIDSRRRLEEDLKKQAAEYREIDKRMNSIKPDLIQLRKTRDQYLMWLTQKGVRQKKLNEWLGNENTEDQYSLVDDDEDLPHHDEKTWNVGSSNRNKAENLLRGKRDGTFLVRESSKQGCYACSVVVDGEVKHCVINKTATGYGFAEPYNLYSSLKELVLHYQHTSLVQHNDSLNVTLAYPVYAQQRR

PI 3-kinase gamma [2] = molecular target: T2, PI 3-kinase gamma (Homo sapiens, UniProt P48736); assay: TR-FRET Adapta assay, assay E; assay type: biochemical; conditions: read-out: Assay E PI3Kγ IC50
T2 sequence (P48736 whole entry): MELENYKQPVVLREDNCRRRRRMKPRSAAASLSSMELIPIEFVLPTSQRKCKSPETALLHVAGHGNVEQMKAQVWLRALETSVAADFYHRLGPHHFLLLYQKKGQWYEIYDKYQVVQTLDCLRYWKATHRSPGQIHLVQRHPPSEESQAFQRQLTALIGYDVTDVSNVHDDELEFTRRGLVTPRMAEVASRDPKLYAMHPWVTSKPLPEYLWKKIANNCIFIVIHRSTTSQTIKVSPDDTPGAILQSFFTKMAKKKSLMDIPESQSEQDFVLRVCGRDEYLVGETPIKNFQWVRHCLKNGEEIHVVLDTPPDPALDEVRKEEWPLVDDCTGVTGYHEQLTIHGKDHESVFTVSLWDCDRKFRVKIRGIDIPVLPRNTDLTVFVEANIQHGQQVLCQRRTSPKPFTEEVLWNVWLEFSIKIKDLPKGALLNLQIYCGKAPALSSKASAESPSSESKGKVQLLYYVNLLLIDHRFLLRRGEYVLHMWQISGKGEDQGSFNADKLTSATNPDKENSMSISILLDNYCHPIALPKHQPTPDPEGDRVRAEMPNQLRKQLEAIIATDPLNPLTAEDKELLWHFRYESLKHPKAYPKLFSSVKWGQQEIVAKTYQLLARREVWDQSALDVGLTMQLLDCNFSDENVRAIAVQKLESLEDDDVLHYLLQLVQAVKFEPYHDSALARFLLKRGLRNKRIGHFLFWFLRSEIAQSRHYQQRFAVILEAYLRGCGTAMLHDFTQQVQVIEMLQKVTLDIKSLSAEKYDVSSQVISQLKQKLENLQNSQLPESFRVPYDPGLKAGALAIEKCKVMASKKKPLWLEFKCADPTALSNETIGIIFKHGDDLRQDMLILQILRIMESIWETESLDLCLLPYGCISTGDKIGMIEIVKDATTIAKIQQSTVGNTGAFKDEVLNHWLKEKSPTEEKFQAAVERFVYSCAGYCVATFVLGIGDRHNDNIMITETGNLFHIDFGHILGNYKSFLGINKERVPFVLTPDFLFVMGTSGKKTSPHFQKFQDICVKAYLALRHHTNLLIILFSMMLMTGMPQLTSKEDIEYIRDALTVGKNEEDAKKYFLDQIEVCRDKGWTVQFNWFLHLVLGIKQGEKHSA

PI 3-kinase delta [3] = molecular target: T3, PI 3-kinase delta (Homo sapiens, UniProt O00329); assay: TR-FRET Adapta assay, assay F; conditions: read-out: Assay F PI3Kδ IC50
Protocol: TR-FRET Adapta Assay for PI 3-Kinase Gamma (E), PI 3-Kinase Delta (F)
The TR-FRET Adapta™ Universal Kinase Assay Kit was purchased from Invitrogen Corporation (Carlsbad/CA, USA) (Cat. No. PV5099).
PIK3CD substrate phosphatidylinositol (PI) was obtained from Invitrogen (vesicules consisting of 2 mM phosphatidylinositol (PI) in 50 mM HEPES pH7.5; Cat. No. PV5371). PIK3CG substrate phosphatidylinositol-4,5-bisphosphate (PIP(4,5)2 was obtained from Invitrogen (PIP2:PS large unilamellar vesicules consisting of 1 mM PIP2: 19 mM PS in 50 mM HEPES pH7.5, 3 mM MgCl2, 1 mM EGTA; Cat. No. PV5100).
Time-Resolved Fluorescence Resonance Energy Transfer (TR-FRET) is a technology based on energy transfer between two adjacent dyes, from an excited electron in one dye (the donor) to an electron of an adjacent dye (the acceptor) through resonance, then released as a photon. This energy transfer is detected by an increase in the fluorescence emission of the acceptor, and a decrease in the fluorescence emission of the donor. TR-FRET assays for protein kinases use a long-lifetime lanthanide Terbium or Europium chelates as the donor species which overcome interference from compound autofluorescence or light scatter from precipitated compounds, by introducing a delay after excitation by a flashlamp excitation source. Results are often expressed as a ratio of the intensities of the acceptor and donor fluorophores. The ratiometric nature of such a value corrects for differences in assay volumes between wells, as well as corrects for quenching effects due to colored compounds. The Adapta™ assay can be divided into two phases: a kinase reaction phase and an ADP detection phase. In the kinase reaction phase, all kinase reaction components are added to the well and the reaction is allowed to incubate for a set period of time specific for each kinase. […] In the presence of an inhibitor, the amount of ADP formed by the kinase reaction is reduced, and the resulting intact antibody-tracer interaction maintains a high TR-FRET signal.
50 nL of compound dilutions were dispensed onto white 384-well small volume polystyrene plate. Then 5 μL of either PI 3-kinase gamma or PI 3-kinase delta and lipid substrate (PI or PIP2:PS) followed by 5 μL of ATP (final assay volume 10 μL) are incubated at RT. The standard reaction buffer for the Adapta™ TR-FRET assay contained 10 mM Tris-HCl pH 7.5, 3 mM MgCl2, 50 mM NaCl, 1 mM DTT, 0.05% CHAPS 3-[(3-cholamidopropyl)dimethylammonio]-1-propanesulfonate).
Data are analyzed using Excel fit software or Graphpad Prism. IC50 values were derived by fitting a sigmoidal dose-response curve to a plot of assay readout over inhibitor concentration. All fits were performed with the program XLfit4 (ID Business Solutions, Guildford, UK). […] All fits were performed with the program XLfit4 (ID Business Solutions, Guildford, UK).

Vps34 = Vps34 (Homo sapiens, UniProt Q8NEB9); assay: Kinase Glo Luminescent Kinase Assay (Kglo), assay C; assay type: biochemical; conditions: read-out: Assay C VPS34 IC50
PI 3-kinase beta [4] = molecular target: T1, PI 3-kinase beta; assay: Kinase Glo Luminescent Kinase Assay (Kglo), assay B; assay type: biochemical; conditions: read-out: Assay B PI3Kβ IC50
Target sequence in this assay (P42338 whole entry): as the sequence (P42338 whole entry) above
Target sequence in this assay (P27986 461-568 partner): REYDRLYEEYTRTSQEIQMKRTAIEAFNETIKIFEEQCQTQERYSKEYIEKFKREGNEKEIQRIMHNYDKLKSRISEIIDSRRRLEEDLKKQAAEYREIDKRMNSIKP

PI 3-kinase alpha [5] = molecular target: T4, PI 3-kinase alpha (Homo sapiens, UniProt P42336); assay: Cellular assay H1, p-Akt (S473) in Rat-1 cells, Surefire format; assay type: cell-based; conditions: non-asterisked data: version H1 (Surefire format), Rat-1 cells; read-out: Assay H PI3Kα IC50
Target sequence in this assay (P42336 whole entry): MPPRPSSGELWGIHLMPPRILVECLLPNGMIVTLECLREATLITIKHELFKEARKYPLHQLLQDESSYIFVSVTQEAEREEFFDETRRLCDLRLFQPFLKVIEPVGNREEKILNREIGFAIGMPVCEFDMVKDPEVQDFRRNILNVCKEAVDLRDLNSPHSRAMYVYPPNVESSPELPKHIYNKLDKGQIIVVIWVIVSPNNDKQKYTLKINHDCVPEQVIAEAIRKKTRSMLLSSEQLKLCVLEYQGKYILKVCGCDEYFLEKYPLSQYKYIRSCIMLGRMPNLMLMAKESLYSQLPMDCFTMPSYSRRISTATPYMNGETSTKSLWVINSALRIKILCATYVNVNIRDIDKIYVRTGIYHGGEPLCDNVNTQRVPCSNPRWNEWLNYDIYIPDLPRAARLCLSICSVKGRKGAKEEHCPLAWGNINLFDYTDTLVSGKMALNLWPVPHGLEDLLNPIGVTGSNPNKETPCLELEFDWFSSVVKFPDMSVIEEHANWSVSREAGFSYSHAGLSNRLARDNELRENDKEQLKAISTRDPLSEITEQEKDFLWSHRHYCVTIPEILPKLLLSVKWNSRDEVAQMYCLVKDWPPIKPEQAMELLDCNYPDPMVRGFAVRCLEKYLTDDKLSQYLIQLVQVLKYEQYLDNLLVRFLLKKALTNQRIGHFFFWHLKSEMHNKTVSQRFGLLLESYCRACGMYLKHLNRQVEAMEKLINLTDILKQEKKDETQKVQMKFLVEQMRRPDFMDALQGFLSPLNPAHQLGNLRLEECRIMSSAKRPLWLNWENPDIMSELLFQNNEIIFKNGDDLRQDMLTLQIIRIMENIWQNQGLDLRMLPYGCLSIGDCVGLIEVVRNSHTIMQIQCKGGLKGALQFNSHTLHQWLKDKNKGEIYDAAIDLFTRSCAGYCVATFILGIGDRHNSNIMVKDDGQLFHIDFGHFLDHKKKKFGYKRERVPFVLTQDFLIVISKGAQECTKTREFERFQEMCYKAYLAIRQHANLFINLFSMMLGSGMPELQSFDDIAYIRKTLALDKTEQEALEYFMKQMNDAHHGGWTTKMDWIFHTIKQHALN
Target sequence in this assay (Q63787 whole entry partner): as the sequence (Q63787 whole entry partner) above

PI 3-kinase gamma [6] = molecular target: T2, PI 3-kinase gamma; assay: Cellular U937 AKT assay K1 (MSD); assay type: cell-based; conditions: U937 cells, K1 format; read-out: Assay K1 PI3Kγ IC50
mTOR = mTOR (Homo sapiens, UniProt P42345); assay: Lanthascreen kinase binding assay, assay G; conditions: read-out: Assay G mTOR IC50
Protocol: Lanthascreen™ Kinase Binding Assay for mTOR (G)
Binding of an inhibitor to the kinase competes for binding with the tracer, resulting in a loss of FRET.
50 nL of compound dilutions were dispensed onto white 384-well small volume polystyrene plate.

PI 3-kinase delta [7] = molecular target: T3, PI 3-kinase delta; assay: Cellular assay J1, p-Akt (S473) in Rat-1 cells, Surefire format; assay type: cell-based; conditions: non-asterisked data: version J1 (Surefire format), Rat-1 cells; read-out: Assay J PI3Kδ IC50
PI 3-kinase alpha [8] = molecular target: T4, PI 3-kinase alpha; assay: Kinase Glo Luminescent Kinase Assay (Kglo), assay A; assay type: biochemical; conditions: read-out: Assay A PI3Kα IC50
Target sequence in this assay (P42336 whole entry): as the sequence (P42336 whole entry) above

[9] = Microsomal clearance assay (M); conditions: intrinsic clearance in rat liver microsomes
Protocol: The experiments were performed in 96-well glass plates at 37° C. on an automated Tecan EVO platform. Test compounds at a concentration of 10 mM in pure DMSO were diluted 1:1000 in water to 10 μM. […] Reactions were initiated by the addition of 150 μL of a cofactor solution containing 2 mM NADPH.

Sequence of PI 4-kinase beta (Q9UBF8 whole entry): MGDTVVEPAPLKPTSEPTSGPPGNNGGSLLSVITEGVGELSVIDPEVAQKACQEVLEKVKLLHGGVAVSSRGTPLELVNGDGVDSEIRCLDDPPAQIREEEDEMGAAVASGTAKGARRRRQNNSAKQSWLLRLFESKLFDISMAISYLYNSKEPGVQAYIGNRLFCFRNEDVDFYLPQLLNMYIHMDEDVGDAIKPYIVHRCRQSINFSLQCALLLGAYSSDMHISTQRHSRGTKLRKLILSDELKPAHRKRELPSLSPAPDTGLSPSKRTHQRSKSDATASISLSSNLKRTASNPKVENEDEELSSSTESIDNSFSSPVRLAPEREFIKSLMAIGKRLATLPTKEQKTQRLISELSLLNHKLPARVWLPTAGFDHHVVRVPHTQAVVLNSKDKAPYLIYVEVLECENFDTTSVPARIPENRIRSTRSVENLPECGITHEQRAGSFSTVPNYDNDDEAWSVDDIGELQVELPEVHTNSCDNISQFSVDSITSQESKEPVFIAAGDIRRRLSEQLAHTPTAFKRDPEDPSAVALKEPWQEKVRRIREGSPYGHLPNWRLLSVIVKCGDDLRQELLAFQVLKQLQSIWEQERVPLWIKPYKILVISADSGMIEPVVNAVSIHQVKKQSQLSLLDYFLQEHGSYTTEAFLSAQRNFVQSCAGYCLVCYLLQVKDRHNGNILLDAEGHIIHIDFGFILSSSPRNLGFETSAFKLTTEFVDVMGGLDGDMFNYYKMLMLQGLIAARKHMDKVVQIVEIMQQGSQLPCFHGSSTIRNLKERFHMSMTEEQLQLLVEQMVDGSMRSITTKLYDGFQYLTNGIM

| SMILES | IC50 (PI 4-kinase beta) [µM] | IC50 (PI 3-kinase beta [1]) [µM] | IC50 (PI 3-kinase gamma [2]) [µM] | IC50 (PI 3-kinase delta [3]) [µM] | IC50 (Vps34) [µM] | IC50 (PI 3-kinase beta [4]) [µM] | IC50 (PI 3-kinase alpha [5]) [µM] | IC50 (PI 3-kinase gamma [6]) [µM] | IC50 (mTOR) [µM] | IC50 (PI 3-kinase delta [7]) [µM] | IC50 (PI 3-kinase alpha [8]) [µM] | Assay M RLM CI(int) [9] [µL/min/mg] |
| --- | --- | --- | --- | --- | --- | --- | --- | --- | --- | --- | --- | --- |
| Cc1ccc(S(=O)(=O)NCCC(C)(C)O)cc1-c1cnc(N)c(-n2ccnc2)n1 [Example 61, 3-(5-Amino-6-(1H-imidazol-1-yl)pyrazin-2-yl)-N-(3-hydroxy-3-methylbutyl)-4-methylbenzenesulfonamide] | > 9.1 | > 10 | 1.82 | 5.81 | > 9.1 | > 9.1 | 8.97 | 0.479 | > 9.1 | 8.18 | 5.47 | 56 |
| Cc1cc(-c2nc(-c3cc(S(=O)(=O)NCC4CCOC4)ccc3C)cnc2N)ccn1 (stereo not drawn) [Example 129.18, 3-(5-amino-6-(2-methylpyridin-4-yl)pyrazin-2-yl)-4-methyl-N-((tetrahydrofuran-3-yl)methyl)benzenesulfonamide] | > 9.1 | > 10 | 0.064 | 0.4 | > 9.1 | 8.11 | 4.92 | 0.528 | > 9.1 | 5.63 | 0.69 | 97 |
| Cc1cc(F)c(S(=O)(=O)NCCC(C)(C)O)cc1-c1cnc(N)c(-n2cncn2)n1 [Example 116, 5-(5-Amino-6-(1H-1,2,4-triazol-1-yl)pyrazin-2-yl)-2-fluoro-N-(3-hydroxy-3-methylbutyl)-4-methylbenzenesulfonamide] | 8.1 | 4.75 | 0.028 | 0.3 | > 9.1 | > 9.1 | 2.31 | 0.197 | > 9.1 | 2.12 | 1.2 | 35 |
| Cc1ccc(S(=O)(=O)NCCC(O)C(F)(F)F)cc1-c1cnc(N)c(-c2cnn(C)c2)n1 (stereo not drawn) [Example 51, 3-(5-Amino-6-(1-methyl-1H-pyrazol-4-yl)pyrazin-2-yl)-4-methyl-N-(4,4,4-trifluoro-3-hydroxybutyl)benzenesulfonamide] | > 9.1 | 6.6 | 0.042 | 0.49 | 7.15 | 4.19 | 6.17 | 0.068 | > 9.1 | 3.95 | 0.37 | 55 |
| Cc1ccc(S(=O)(=O)N[C@H]2CC[C@H](O)CC2)cc1-c1cnc(N)c(-c2ccnc(F)c2)n1 [Example 60, Trans-3-(5-Amino-6-(2-fluoropyridin-4-yl)pyrazin-2-yl)-N-(-4-hydroxycyclohexyl)-4-methylbenzenesulfonamide] | 3.63 | 3.08 | 0.04 | 0.22 | > 9.1 | 4.57 | 1.54 | 0.093 | 8.35 | 1.3 | 0.11 | 24 |
| Cc1ccc(S(=O)(=O)NCCC(C)(C)O)cc1-c1cnc(N)c(-c2cnn(CCN3CCOCC3)c2)n1 [Example 119.41] | 6 | 3.2 | 0.025 | 0.03 | > 10 | 3.25 | > 10 | 0.091 | > 10 | 6.49 | 0.42 | 73 |
| Cc1ccc(S(=O)(=O)NCCC(C)(C)O)cc1-c1cnc(N)c(-c2cnn(Cc3ccncc3)c2)n1 [Example 119.39] | 6.5 | 2.15 | 0.006 | 0.04 | > 9.1 | 2.8 | 5.04 | 0.034 | 6.9 | 1.61 | 0.1 | 203 |
